Laboratory results from ChEMBL document CHEMBL6096664, “Discovery of novel KSP-targeting PROTACs with potent antitumor effects in vitro and in vivo” (Eur J Med Chem, 2025).

Legend:
[1] = target: Protein cereblon/Kinesin-like protein KIF11 (Homo sapiens, UniProt P52732+Q96SW2); assay: PROTAC activity at CRBN/KSP in human HCT-116 cells assessed as induction of KSP degradation at 500 nM incubated for 48 hrs by Western blot analysis relative to control; assay type: cell-based
[2] = system: HCT-116; assay: Antiproliferative activity against human HCT-116 cells assessed as inhibition of cell proliferation measured after 72 hrs by CCK8 assay; assay type: functional, cell-based; settings: HCT-116, 72 h
[3] = system: HCT-116; assay: Induction of cell cycle arrest in human HCT-116 cells assessed as accumulation of cells at S phase at 10 nM incubated for 24 hrs by RNase A/propidium iodide staining based flow cytometric analysis (reference value: 2.84 %); assay type: functional
[4] = system: A549; assay: Antiproliferative activity against human A549 cells assessed as inhibition of cell proliferation measured after 72 hrs by CCK8 assay; assay type: functional, cell-based; settings: A549, 72 h
[5] = system: HCT-116; assay: Induction of cell cycle arrest in human HCT-116 cells assessed as accumulation of cells at G1 phase at 10 nM incubated for 24 hrs by RNase A/propidium iodide staining based flow cytometric analysis (reference value: 93.11 %); assay type: functional
[6] = system: HCT-116; assay: Induction of apoptosis in human HCT-116 cells assessed as viable cells at 100 nM incubated for 48 hrs by Annexin V-FITC/PI staining based flow cytometry analysis (reference value: 94.31 %); assay type: functional; settings: read-out: Activity
[7] = system: MCF7; assay: Antiproliferative activity against human MCF7 cells assessed as inhibition of cell proliferation measured after 72 hrs by CCK8 assay; assay type: functional, cell-based; settings: MCF7, 72 h
[8] = system: HCT-116; assay: Induction of cell cycle arrest in human HCT-116 cells assessed as accumulation of cells at G2/M phase at 10 nM incubated for 24 hrs by RNase A/propidium iodide staining based flow cytometric analysis (reference value: 4.05 %); assay type: functional
[9] = system: MDA-MB-231; assay: Antiproliferative activity against human MDA-MB-231 cells assessed as inhibition of cell proliferation measured after 72 hrs by CCK8 assay; assay type: functional, cell-based; settings: MDA-MB-231, 72 h
[10] = system: HCT-116; assay: Induction of apoptosis in human HCT-116 cells assessed as late apoptotic cells at 100 nM incubated for 48 hrs by Annexin V-FITC/PI staining based flow cytometry analysis (reference value: 1.36 %); assay type: functional
[11] = system: HCT-116; assay: Induction of apoptosis in human HCT-116 cells assessed as early apoptotic cells at 100 nM incubated for 48 hrs by Annexin V-FITC/PI staining based flow cytometry analysis (reference value: 3.02 %); assay type: functional
[12] = system: HCT-116; assay: Induction of apoptosis in human HCT-116 cells assessed as necrotic cells at 100 nM incubated for 48 hrs by Annexin V-FITC/PI staining based flow cytometry analysis (reference value: 1.31 %); assay type: functional
[13] = target: T1, Kinesin-like protein KIF11 (Homo sapiens, UniProt P52732); assay: Inhibition of KSP (unknown origin) ATPase activity preincubated for 30 mins followed by ATP addition and measured after 15 mins by Kinase-Glo Plus reagent based luminescence analysis
T1 sequence (P52732 whole entry): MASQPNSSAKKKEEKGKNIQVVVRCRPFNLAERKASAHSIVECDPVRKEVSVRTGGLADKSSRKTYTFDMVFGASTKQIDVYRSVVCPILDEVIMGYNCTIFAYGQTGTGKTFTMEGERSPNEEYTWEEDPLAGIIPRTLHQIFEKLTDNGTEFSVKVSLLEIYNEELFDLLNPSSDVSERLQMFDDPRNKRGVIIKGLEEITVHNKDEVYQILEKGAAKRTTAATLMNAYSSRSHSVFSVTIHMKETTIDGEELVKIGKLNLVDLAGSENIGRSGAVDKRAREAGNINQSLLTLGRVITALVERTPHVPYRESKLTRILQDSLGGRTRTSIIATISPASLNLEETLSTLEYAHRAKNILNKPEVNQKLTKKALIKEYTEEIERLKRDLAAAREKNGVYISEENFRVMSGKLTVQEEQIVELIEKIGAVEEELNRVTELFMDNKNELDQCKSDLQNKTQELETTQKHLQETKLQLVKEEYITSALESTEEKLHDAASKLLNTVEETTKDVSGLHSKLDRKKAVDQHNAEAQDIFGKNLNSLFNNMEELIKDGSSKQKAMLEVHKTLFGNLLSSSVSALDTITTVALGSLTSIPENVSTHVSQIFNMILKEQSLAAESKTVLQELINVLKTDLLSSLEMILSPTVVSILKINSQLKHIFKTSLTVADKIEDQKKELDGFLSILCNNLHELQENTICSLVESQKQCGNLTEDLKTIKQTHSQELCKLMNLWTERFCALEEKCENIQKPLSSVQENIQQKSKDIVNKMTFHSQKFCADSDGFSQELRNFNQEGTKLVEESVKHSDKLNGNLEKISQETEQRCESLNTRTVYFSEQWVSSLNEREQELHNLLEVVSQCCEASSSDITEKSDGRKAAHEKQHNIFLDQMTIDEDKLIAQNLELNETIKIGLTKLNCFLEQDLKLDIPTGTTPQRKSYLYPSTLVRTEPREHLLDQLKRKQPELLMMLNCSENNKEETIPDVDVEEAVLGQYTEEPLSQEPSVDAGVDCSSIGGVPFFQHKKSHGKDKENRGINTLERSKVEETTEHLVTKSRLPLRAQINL

[14] = system: HCT-116; assay: PROTAC activity at VHL-L/KSP in human HCT-116 cells assessed as induction of KSP degradation at 500 nM incubated for 48 hrs by Western blot analysis relative to control; assay type: cell-based

Sequence of Protein cereblon/Kinesin-like protein KIF11 (Q96SW2 whole entry, looked up, one chain of several): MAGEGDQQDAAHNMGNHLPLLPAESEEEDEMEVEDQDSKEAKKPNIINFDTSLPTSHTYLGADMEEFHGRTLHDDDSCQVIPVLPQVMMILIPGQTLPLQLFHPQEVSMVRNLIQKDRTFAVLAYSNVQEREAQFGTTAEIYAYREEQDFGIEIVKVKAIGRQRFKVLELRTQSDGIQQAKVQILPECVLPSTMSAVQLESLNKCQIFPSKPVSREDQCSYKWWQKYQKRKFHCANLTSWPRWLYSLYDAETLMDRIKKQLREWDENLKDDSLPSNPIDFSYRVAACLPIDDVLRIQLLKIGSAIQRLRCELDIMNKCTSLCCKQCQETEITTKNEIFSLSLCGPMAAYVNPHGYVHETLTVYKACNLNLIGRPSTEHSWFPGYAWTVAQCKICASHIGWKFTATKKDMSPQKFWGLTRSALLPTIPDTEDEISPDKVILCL

Structure (SMILES)	Activity [1] [%]	IC50 [2] [nM]	further results
COc1ccc(C2(SC[C@H](N)C(=O)NCCCCCCCCCCNc3ccc4c(c3)C(=O)N(C3CCC(=O)NC3=O)C4=O)c3ccccc3C=Cc3ccccc32)cc1 (stereo partly specified)	53.9	51.3	
COc1ccc(C2(SC[C@H](N)C(=O)NCCOCCNc3ccc4c(c3)C(=O)N(C3CCC(=O)NC3=O)C4=O)c3ccccc3C=Cc3ccccc32)cc1 (stereo partly specified)	25.7	203	
COc1ccc(C2(SC[C@H](N)C(=O)NCCCCCCNc3ccc4c(c3)C(=O)N(C3CCC(=O)NC3=O)C4=O)c3ccccc3C=Cc3ccccc32)cc1 (stereo partly specified)	35.6	145	
COc1ccc(C2(SC[C@H](N)C(=O)NCCCCCCCCC(=O)N[C@H](C(=O)N3C[C@H](O)C[C@H]3C(=O)NCc3ccc(-c4scnc4C)cc3)C(C)(C)C)c3ccccc3C=Cc3ccccc32)cc1		262	Activity [14]: 18.3%
COc1ccc(C2(SC[C@H](N)C(=O)NCCOCCOCCOCCNC(=O)COc3cccc4c3C(=O)N(C3CCC(=O)NC3=O)C4=O)c3ccccc3C=Cc3ccccc32)cc1 (stereo partly specified)	28.3	206	
COc1ccc(C2(SC[C@H](N)C(=O)NCCNC(=O)COc3cccc4c3C(=O)N(C3CCC(=O)NC3=O)C4=O)c3ccccc3C=Cc3ccccc32)cc1 (stereo partly specified)	18.5	313	
COc1ccc(C2(SC[C@H](N)C(=O)NCCCCCCCCNc3ccc4c(c3)C(=O)N(C3CCC(=O)NC3=O)C4=O)c3ccccc3C=Cc3ccccc32)cc1 (stereo partly specified)	54.3	53.8	
COc1ccc(C2(SC[C@H](N)C(=O)NCCCCNC(=O)COc3cccc4c3C(=O)N(C3CCC(=O)NC3=O)C4=O)c3ccccc3C=Cc3ccccc32)cc1 (stereo partly specified)	43.6	83.7	
COc1ccc(C2(SC[C@H](N)C(=O)NCCCCCCCCNc3cccc4c3C(=O)N(C3CCC(=O)NC3=O)C4=O)c3ccccc3C=Cc3ccccc32)cc1 (stereo partly specified)	61.5	40.8	
COc1ccc(C2(SC[C@H](N)C(=O)NCCCCCCCCCCNc3cccc4c3C(=O)N(C3CCC(=O)NC3=O)C4=O)c3ccccc3C=Cc3ccccc32)cc1 (stereo partly specified)	60.1	42.3	
COc1ccc(C2(SC[C@H](N)C(=O)NCCCCCCC(=O)N[C@H](C(=O)N3C[C@H](O)C[C@H]3C(=O)NCc3ccc(-c4scnc4C)cc3)C(C)(C)C)c3ccccc3C=Cc3ccccc32)cc1		181	Activity [14]: 25.2%
COc1ccc(C2(SC[C@H](N)C(=O)NCCOCCNC(=O)COc3cccc4c3C(=O)N(C3CCC(=O)NC3=O)C4=O)c3ccccc3C=Cc3ccccc32)cc1 (stereo partly specified)	60.1	37.4	
COc1ccc(C2(SC[C@H](N)C(=O)NCCCCNc3cccc4c3C(=O)N(C3CCC(=O)NC3=O)C4=O)c3ccccc3C=Cc3ccccc32)cc1 (stereo partly specified)	11.2	247	
COc1ccc(C2(SC[C@H](N)C(=O)NCCCNC(=O)COc3cccc4c3C(=O)N(C3CCC(=O)NC3=O)C4=O)c3ccccc3C=Cc3ccccc32)cc1 (stereo partly specified)	42.1	96.9	
COc1ccc(C2(SC[C@H](N)C(=O)NCCCCC(=O)N[C@H](C(=O)N3C[C@H](O)C[C@H]3C(=O)NCc3ccc(-c4scnc4C)cc3)C(C)(C)C)c3ccccc3C=Cc3ccccc32)cc1		130	Activity [14]: 38.3%
COc1ccc(C2(SC[C@H](N)C(=O)NCCOCCC(=O)N[C@H](C(=O)N3C[C@H](O)C[C@H]3C(=O)NCc3ccc(-c4scnc4C)cc3)C(C)(C)C)c3ccccc3C=Cc3ccccc32)cc1		110	Activity [14]: 42.2%

Further lines, with some results ahead:

Activity [1] [%]	IC50 [2] [nM]	Structure (SMILES)	further results
12.8	366	COc1ccc(C2(SC[C@H](N)C(=O)NCCOCCNc3cccc4c3C(=O)N(C3CCC(=O)NC3=O)C4=O)c3ccccc3C=Cc3ccccc32)cc1 (stereo partly specified)	
43.5	81.3	COc1ccc(C2(SC[C@H](N)C(=O)NCCOCCOCCOCCNc3cccc4c3C(=O)N(C3CCC(=O)NC3=O)C4=O)c3ccccc3C=Cc3ccccc32)cc1 (stereo partly specified)	
0	8.5	COc1ccc(C2(SC[C@H](N)C(=O)O)c3ccccc3C=Cc3ccccc32)cc1	Activity [3]: 12.07%; IC50 [4]: 262 nM; Activity [5]: 66.9%; viability at 0.1 µM [6]: 30.7%; IC50 [7]: 17.5 nM; Activity [8]: 21.03%; IC50 [9]: 12.1 nM; Activity [10]: 23.79%; Activity [11]: 31.49%; Activity [12]: 14.06%; IC50 [13]: 27.6 nM
46.6	66.8	COc1ccc(C2(SC[C@H](N)C(=O)NCCCCCNC(=O)COc3cccc4c3C(=O)N(C3CCC(=O)NC3=O)C4=O)c3ccccc3C=Cc3ccccc32)cc1 (stereo partly specified)	
53.2	42.2	COc1ccc(C2(SC[C@H](N)C(=O)NCCOCCOCCNC(=O)COc3cccc4c3C(=O)N(C3CCC(=O)NC3=O)C4=O)c3ccccc3C=Cc3ccccc32)cc1 (stereo partly specified)	
10.6	360	COc1ccc(C2(SC[C@H](N)C(=O)NCCCCNc3ccc4c(c3)C(=O)N(C3CCC(=O)NC3=O)C4=O)c3ccccc3C=Cc3ccccc32)cc1 (stereo partly specified)	
24.1	235	COc1ccc(C2(SC[C@H](N)C(=O)NCCOCCOCCNc3ccc4c(c3)C(=O)N(C3CCC(=O)NC3=O)C4=O)c3ccccc3C=Cc3ccccc32)cc1 (stereo partly specified)	
52.5	52.9	COc1ccc(C2(SC[C@H](N)C(=O)NCCCCCCNC(=O)COc3cccc4c3C(=O)N(C3CCC(=O)NC3=O)C4=O)c3ccccc3C=Cc3ccccc32)cc1 (stereo partly specified)	
40.6	95.4	COc1ccc(C2(SC[C@H](N)C(=O)NCCOCCOCCOCCNc3ccc4c(c3)C(=O)N(C3CCC(=O)NC3=O)C4=O)c3ccccc3C=Cc3ccccc32)cc1 (stereo partly specified)	
	165	COc1ccc(C2(SC[C@H](N)C(=O)NCCOCCOCCOCCC(=O)N[C@H](C(=O)N3C[C@H](O)C[C@H]3C(=O)NCc3ccc(-c4scnc4C)cc3)C(C)(C)C)c3ccccc3C=Cc3ccccc32)cc1	Activity [14]: 32.1%
	158	COc1ccc(C2(SC[C@H](N)C(=O)NCCOCCOCCC(=O)N[C@H](C(=O)N3C[C@H](O)C[C@H]3C(=O)NCc3ccc(-c4scnc4C)cc3)C(C)(C)C)c3ccccc3C=Cc3ccccc32)cc1	Activity [14]: 34.5%
42.3	93.4	COc1ccc(C2(SC[C@H](N)C(=O)NCCCCCCNc3cccc4c3C(=O)N(C3CCC(=O)NC3=O)C4=O)c3ccccc3C=Cc3ccccc32)cc1 (stereo partly specified)	
68.3	31.6	COc1ccc(C2(SC[C@H](N)C(=O)NCCCCCCCCCCNC(=O)COc3cccc4c3C(=O)N(C3CCC(=O)NC3=O)C4=O)c3ccccc3C=Cc3ccccc32)cc1 (stereo partly specified)	
29.1	184	COc1ccc(C2(SC[C@H](N)C(=O)NCCOCCOCCNc3cccc4c3C(=O)N(C3CCC(=O)NC3=O)C4=O)c3ccccc3C=Cc3ccccc32)cc1 (stereo partly specified)	
